Target: T1, TPβ isoform of the human T Prostanoid receptor (thromboxane receptor, TP) (Homo sapiens, UniProt P21731)
T1 construct: gene TBXA2R; TPβ isoform, stably over-expressed in HEK 293 cells (HEK.TPβ line)
T1 sequence (P21731 1-328 limits assumed): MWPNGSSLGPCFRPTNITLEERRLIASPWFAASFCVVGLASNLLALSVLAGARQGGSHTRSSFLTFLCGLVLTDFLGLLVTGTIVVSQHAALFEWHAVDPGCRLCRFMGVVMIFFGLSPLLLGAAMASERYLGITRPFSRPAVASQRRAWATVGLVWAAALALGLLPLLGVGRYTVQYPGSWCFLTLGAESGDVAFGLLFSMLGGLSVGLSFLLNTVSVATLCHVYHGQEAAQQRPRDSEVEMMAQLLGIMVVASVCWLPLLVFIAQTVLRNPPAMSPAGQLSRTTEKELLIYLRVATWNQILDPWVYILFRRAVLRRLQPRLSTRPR
Assay: antagonism of U46619-stimulated intracellular calcium mobilization in HEK.TPβ cells (also vs 8-iso-PGF2α, IC50 […])
Format: cell-based

IC50: 8.86 ± 3.07 nM
Compound: CC(C)(C)NC(=O)NS(=O)(=O)c1cc(C#N)ccc1Oc1cccc(-c2ccc(OC(F)F)cc2)c1 [NTP42]

— PMC7132963, “NTP42, a novel antagonist of the thromboxane receptor, attenuates experimentally induced pulmonary arterial hypertension” (BMC Pulmonary Medicine, 2020)
